In PMC3743924 (The Biochemical journal, 2013):

Assays:
[1] = biological target: T1, APH(3')-Ia (Escherichia coli, UniProt P00551); settings: Ca2+ complex; nucleotide site
[2] = biological target: T1, APH(3')-Ia; experiment: X-ray crystal structure, […]-2.[…] A; format: binding; settings: ternary complex with kanamycin; ATP site; pH 4.5
[3] = biological target: T1, APH(3')-Ia; experiment: activity assay with kanamycin; format: biochemical; settings: co-substrate kanamycin; constants unpublished

T1 sequence (P00551 whole entry): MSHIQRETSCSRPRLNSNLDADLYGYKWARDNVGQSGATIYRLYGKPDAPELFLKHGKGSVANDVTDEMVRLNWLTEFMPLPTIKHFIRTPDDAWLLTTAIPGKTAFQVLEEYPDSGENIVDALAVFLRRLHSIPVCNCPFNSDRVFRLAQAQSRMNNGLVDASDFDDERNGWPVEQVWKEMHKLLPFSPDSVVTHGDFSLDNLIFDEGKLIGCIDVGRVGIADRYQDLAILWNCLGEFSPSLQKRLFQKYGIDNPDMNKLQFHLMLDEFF

With `Nc1ncnc2c1ncn2[C@@H]1O[C@H](COP(=O)(O)OP(=O)(O)OP(=O)(O)O)[C@@H](O)[C@H]1O` [ATP] the “X-ray crystal structure, 2.3-2.4 A” value [1] was “unambiguous additional density corresponding to the ATP molecule”.
In the case of `COc1cc2ncnc(Nc3cccc(Cl)c3)c2cc1OC` [Tyrphostin AG 1478, N-(3-chlorophenyl)-6,7-dimethoxyquinazolin-4-amine], the “X-ray crystal structure, 2.69-2.71 A” value [2] is reported as “the inhibitor molecule was held in the NTP binding site through hydrophobic interactions”.
In the case of `Nc1nc2c(ncn2[C@@H]2O[C@H](COP(=O)(O)OP(=O)(O)OP(=O)(O)O)[C@@H](O)[C@H]2O)c(=O)[nH]1` [GTP], the “activity assay with kanamycin” value [3] is reported as “indicating GTP is a superior substrate”.
